Data published in article PMC3020970, “K70Q Adds High-Level Tenofovir Resistance to “Q151M Complex” HIV Reverse Transcriptase through the Enhanced Discrimination Mechanism” (PLoS ONE, 2011).
Several values for one entry are separate records, joined by “and”; a condition that tells them apart may be missing. Identical values can stand only once.

What was measured:
HIV-1 RT K70Q = biological target: T1, HIV-1 RT K70Q (Human immunodeficiency virus type 1 group M subtype B, UniProt P03366, K669Q); test: Pre-steady state kinetics of binding and incorporation; format: biochemical
T1 construct: made in house; host or cells: Escherichia coli BL21
Procedure: (§1) The reactions were quenched at various times (10 ms to 5 s) by adding EDTA to a final concentration of 50 mM. The amounts of product (P18-dAMP) were quantitated and fit to the following burst equation: [drawing 1] (1) where A is the amplitude of the burst phase that represents the RT-DNA complex at the start of the reaction, k obs is the observed burst rate constant for dNTP incorporation, k ss is the steady state rate constant, and t is the reaction time. The rate constant of the linear phase (kcat) can be estimated by dividing the slope of the linear phase by the enzyme concentration. The active site concentration and template/primer binding affinity (KD-DNA) were determined by plotting the amplitude (A) against the concentration of template/primer. The data were fit using non-linear regression to a quadratic equation: [drawing 2] (2) where KD is the dissociation constant for the RT-DNA complex, and [RT] is the concentration of active polymerase molecules. Subsequent biochemical experiments were performed using corrected active site concentrations, [43].
(§2) HIV-1 RT (50 nM active sites) was pre-incubated with 50 nM T31/P18 in one syringe (Syringe A), whereas varying concentrations of dNTP and 10 mM MgCl2 were kept in another syringe (Syringe B). The solutions were rapidly mixed to initiate reactions, which were subsequently quenched at various times (5 ms to 10 s) by adding EDTA to a final concentration of 50 mM. The products from each quenched reaction were resolved, quantitated, and plotted as described above. The data were fit by non-linear regression to the burst equation (Eq 1).
(§3) To obtain the dissociation constant KD-dNTP for dNTP binding to the RT-DNA complex, the observed burst rates (kobs) were fit to the hyperbolic equation (Eq. 3) using nonlinear regression: [drawing 3] (3) where kpol is the optimal rate of dNTP incorporation.

HIV-1 RT K70Q/Q151Mc = biological target: T2, HIV-1 RT K70Q/Q151Mc (Human immunodeficiency virus type 1 group M subtype B, UniProt P03366, A661V/F676L/F715Y/K669Q/Q750M/V674I); test: as above; format: biochemical
T2 construct: made in house; host or cells: Escherichia coli BL21
Procedure: as §1, with “Determination of active site concentrations in the different preparations of WT and mutant RTs were performed using pre-steady state burst experiments. […] The reactions” for “The reactions”
as §2, §3
The kinetics of TFV incorporation by the WT and mutant enzymes were carried out in a manner similar to that employed for natural dNTP substrate except the time of reactions. It was noted that the mutant enzymes required longer time to incorporate TFV compared to the WT HIV-1 RT (detailed in the Results section).

## CC(Cn1cnc2c(N)ncnc21)OCP(=O)(O)OP(=O)(O)OP(=O)(O)O (stereo in doubt) [TFV-DP, tenofovir-diphosphate]
HIV-1 RT K70Q; K70Q RT
  Selectivity (k pol/Kd)dATP/(k pol/Kd)TFV-DP: 6.1
  k pol/Kd: 0.36 µM⁻¹ s⁻¹ and 0.36 ± 0.08 µM⁻¹ s⁻¹
HIV-1 RT K70Q; K70Q RT vs WT RT
  Reduced affinity for TFV than the WT enzyme: more than 4.5 fold
HIV-1 RT K70Q; K70Q RT, T31/P18, 37°C
  k pol: 3.1 s⁻¹ and 3.1 ± 0.4 s⁻¹
HIV-1 RT K70Q; K70Q RT, binding to RT-DNA complex
  Kd: 8.6 ± 1.5 µM
HIV-1 RT K70Q/Q151Mc; K70Q/Q151Mc RT
  Selectivity (k pol/Kd)dATP/(k pol/Kd)TFV-DP: 26.3
  k pol/Kd: 0.11 µM⁻¹ s⁻¹ and 0.11 ± 0.03 µM⁻¹ s⁻¹
HIV-1 RT K70Q/Q151Mc; K70Q/Q151Mc RT vs WT RT
  Reduced affinity for TFV than the WT enzyme: more than 4.5 fold
HIV-1 RT K70Q/Q151Mc; K70Q/Q151Mc RT, T31/P18, 37°C
  k pol: 1.0 ± 0.03 s⁻¹
HIV-1 RT K70Q/Q151Mc; K70Q/Q151Mc RT, binding to RT-DNA complex
  Kd: 8.9 ± 2.1 µM
